Where a name gives a salt, the structure may show the parent alone.
Target: T1, NO-Synthase (iNOS) (Mus musculus, UniProt P29477)
T1 construct: Während der Stimulation über 4 Stunden wird die Neusynthese des NO-produzierenden Enzyms NO-Synthase (iNOS) induziert; endogenous in cells; host or cells: RAW 264.7 mouse macrophages stimulated with LPS and γ-interferon
Experiment: NO measurement by oxyhaemoglobin on LPS/γ-interferon-stimulated macrophages (inhibition of NO release)
Format: cell-based, Maus
Conditions: Mäusemakrophagen RAW 264.7, stimulated 4 h with 140 ng LPS/ml + 5 U γIFN/ml; 120 min incubation with test substance; Extinktionsdifferenz 576-592 nm vs. stimulation control
Procedure: Die Hemmung der NO-Freisetzung durch die Verbindungen der allgemeinen Formel I kann auch durch NO-Messung mittels Oxyhämoglobin auf Makrophagen wie folgt bestimmt werden: Mäusemakrophagen (MM) des Stammes RAW 264.7 werden in Petrischalen (10 cm Durchmesser) angezüchtet. Als Nährmedium wird DMEM (Fa. Sigma Nr. D 5405), konditioniert mit 4 mM l-Glutamin, 3,5 g D-Glukose/l, 50 U/50 µg/ml Pen/Strep und 10 % FKS, eingesetzt unter 5 % CO2, 95 % Luftfeuchtigkeit, 37°C. Die subkonfluenten Zellen werden mit dem Zellschaber abgekratzt, in Medium aufgenommen, die Zellzahl bestimmt (Zählung in Trypanblaulösung 0,2 %) und in 24-Napfplatten (1 x 10^6 Zellen/ml, 1 ml/Napf) ausgesät.
Ca. 18 Stunden nach Aussaat werden die gut adherierten Mausmakrophagen mit LPS (Lipopolysaccharid von E. coli Serotyp 0111:B4, Fa. Sigma Nr. L 2630) und γ-Interferon (γIFN, Maus rekombinant, Firma Boehringer Mannheim Nr. 1276905) stimuliert. Dazu wird das Kulturmedium von den Zellen abgesaugt und 1 ml/Napf (24-Napfplatte) Inkubationsmedium (MEM ohne Phenolrot (Biochrom F0385)), konditioniert mit 4mM Glutamin, 3,5 g Glukose/l, 3,7 g NaHCO3/l, 110 mg Natriumpyruvat/l, 50 U/50 µg/ml Pen/Strep und 5 % FKS, aufgegeben. Pro ml Inkubationsmedium werden 1 µl LPS und 1 µl γIFN pipettiert.
Daraus ergeben sich folgende Konzentrationen der Stimulatoren: 140 ng LPS/ml + 5 U γIFN/ml [formula] […]

Which IC50 does the source give for `NC1=NCCCCS1` [Beispiel 1, 2-Amino-4,5,6,7-tetrahydro-1,3-thiazepin-Hydrochlorid] here?
The IC50 was 1300 nM.
